Patent publication US7772268B2, “Diacyl indazole derivatives as lipase and phospholipase inhibitors” (Sanofi-Aventis, priority 2005, dated 2010)

Assays:
endothelial lipase (EL) = molecular target: T1, endothelial lipase (EL) (Homo sapiens, UniProt Q9Y5X9); experiment: EL inhibition assay (conditioned medium of recombinant cell lines, Bodipy phospholipid substrate); format: biochemical; settings: EL from conditioned medium (CHO, HEK293); 37° C., 60 minutes
T1 construct: made in house; host or cells: recombinant cell lines CHO, HEK293 (conditioned medium, concentrated)
T1 sequence (Q9Y5X9 21-500): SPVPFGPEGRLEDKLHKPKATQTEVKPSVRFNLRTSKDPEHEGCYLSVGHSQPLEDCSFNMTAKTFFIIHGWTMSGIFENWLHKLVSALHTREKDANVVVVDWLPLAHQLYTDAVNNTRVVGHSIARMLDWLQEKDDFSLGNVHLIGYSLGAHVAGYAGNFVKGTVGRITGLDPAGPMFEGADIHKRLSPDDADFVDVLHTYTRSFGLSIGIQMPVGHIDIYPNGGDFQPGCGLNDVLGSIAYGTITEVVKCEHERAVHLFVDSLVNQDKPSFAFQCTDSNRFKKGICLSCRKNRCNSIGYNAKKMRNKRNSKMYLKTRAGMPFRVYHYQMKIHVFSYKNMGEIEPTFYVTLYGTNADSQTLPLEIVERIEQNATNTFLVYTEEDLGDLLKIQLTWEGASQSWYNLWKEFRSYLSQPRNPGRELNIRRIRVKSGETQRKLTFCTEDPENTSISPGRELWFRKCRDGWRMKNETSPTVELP
Excerpt: EL is released as secretory protein in high concentration into cell culture medium (conditioned medium) by recombinant cell lines (CHO, HEK293). This is employed as enzyme solution after concentration.
The phospholipase-specific substrate 1,2-bis(4,4-difluoro-5,7-dimethyl-4-bora-3a,4a-diaza-s-indacene-3-undecanoyl)-sn-glycero-3-phosphocholine, (manufacturer Molecular Probes) is used to characterize the enzymatic activity of endothelial lipase and the effect of inhibitors. Hydrolysis of the A1 ester linkage of this phospholipid by the enzyme liberates the fluorescent dye Bodipy which can be detected after separation by thin-layer chromatography on an HPTLC plate (silica gel 60, Merck) or directly in the reaction vessel by measuring the fluorescence.
The substrate solution is prepared by taking up 100 μg of 1,2-bis(4,4-difluoro-5,7-dimethyl-4-bora-3a,4a-diaza-s-indacene-3-undecanoyl)-sn-glycero-3-phospho-choline (manufacturer Molecular Probes), 2.4 mg of tripalmitin (Sigma) and 7.9 mg of DOP—choline (1,2-dioleoyl-sn-glycero-3-phosphocholine) in 393 μl of chloroform and then transferring 157 μl into a fresh reaction vessel. After evaporation of the solvent, the lipid mixture is dissolved in 4 ml of 200 mM TRIS-HCl, 150 mM sodium chloride, pH=7.4, by sonication twice. The subsequent enzymic reaction takes place at 37° C. for 60 minutes. For this purpose, 45 μl of the substrate solution are incubated with 1 μl of inhibitor of appropriate concentration (dissolved in DMSO, pure DMSO solution is used as control) and 5 μl of enzyme solution (conditioned medium). Then 3 μl of the assay mixture are loaded onto an HPTLC plate (silica gel 60, Merck), and the liberated fluorescent dye is separated for detection with an eluent (diethyl ether:petroleum benzene:acetic acid [78:22:1]). After evaporation of the eluent, the plate is read in a fluorescence scanner. An increased release of the fluorescent dye in the uninhibited reaction is to be observed as a measure of the enzymic activity.
The enzymatic activity is reduced as a function of the inhibitor concentration used, and the inhibitor concentration at which a half-maximum enzymatic activity is observed is called IC50.

[1] = molecular target: T2, hormone sensitive lipase, HSL (Rattus norvegicus, UniProt P15304); experiment: HSL inhibition assay (partially purified HSL, [3H]trioleoylglycerol substrate); format: biochemical; settings: partially purified HSL from rat fat cells; 37° C., 30 min
T2 construct: Isolated rat fat cells are obtained from epididymal adipose tissue; from tissue; host or cells: rat epididymal adipose tissue (isolated fat cells, Wistar rats)
T2 sequence (P15304 301-1068 limits assumed): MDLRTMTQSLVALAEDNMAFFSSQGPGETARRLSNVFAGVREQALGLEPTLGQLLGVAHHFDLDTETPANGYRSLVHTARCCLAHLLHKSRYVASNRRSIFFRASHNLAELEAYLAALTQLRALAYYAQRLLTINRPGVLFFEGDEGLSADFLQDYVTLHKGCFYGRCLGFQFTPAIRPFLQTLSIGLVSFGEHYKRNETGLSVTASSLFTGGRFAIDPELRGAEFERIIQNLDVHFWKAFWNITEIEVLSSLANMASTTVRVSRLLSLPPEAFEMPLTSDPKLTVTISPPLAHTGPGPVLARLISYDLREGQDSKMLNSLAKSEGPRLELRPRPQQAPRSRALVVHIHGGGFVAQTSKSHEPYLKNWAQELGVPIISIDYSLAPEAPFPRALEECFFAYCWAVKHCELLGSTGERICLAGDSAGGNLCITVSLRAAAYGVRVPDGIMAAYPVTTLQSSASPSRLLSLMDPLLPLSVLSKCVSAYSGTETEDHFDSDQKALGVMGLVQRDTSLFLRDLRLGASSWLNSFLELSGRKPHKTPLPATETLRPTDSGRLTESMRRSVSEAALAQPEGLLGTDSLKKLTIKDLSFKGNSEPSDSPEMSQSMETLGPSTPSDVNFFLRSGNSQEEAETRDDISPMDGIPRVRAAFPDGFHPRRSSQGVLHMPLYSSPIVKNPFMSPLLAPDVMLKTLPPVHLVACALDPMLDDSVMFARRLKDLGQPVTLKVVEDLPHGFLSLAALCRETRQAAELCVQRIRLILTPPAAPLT
Description: Preparation of the partially purified HSL:
Isolated rat fat cells are obtained from epididymal adipose tissue from untreated male rats (Wistar, 220-250 g) by collagenase treatment in accordance with published methods (e.g. S, Nilsson et al., Anal. Biochem. 158, 1986, 399-407; G. Fredrikson et al., J. Biol. Chem. 256, 1981, 6311-6320; H. Tornquist et al., J. Biol. Chem. 251, 1976, 813-819). The fat cells from 10 rats are washed three times by flotation with 50 ml of homogenization buffer ([…] Tris/HCl, pH 7.4, 0.25 M sucrose, 1 mM ETDA, 1 mM DTT, 10 μg/ml leupeptin, 10 μg/ml antipain, 20 μg/ml pepstatin) each time and finally taken up in 10 ml of homogenization buffer. The fat cells are homogenized in a Teflon-in-glass homogenizer (Braun-Melsungen) by 10 strokes at 1500 rpm and 15° C. The homogenate is centrifuged (Sorvall SM24 tubes, 5000 rpm, 10 min, 4° C.). The subnatant between the layer of fat at the top and the pellet is removed and the centrifugation is repeated. The subnatant resulting therefrom is centrifuged again (Sorvall SM24 tubes, 20 000 rpm, 45 min, 4° C.). […] After incubation at 4° C. for 60 min (shaking at intervals of 15 min), the mixture is centrifuged (Sorvall SM24 tubes, 3000 rpm, 10 min, 4° C.). The supernatant is adjusted to pH 5.2 by adding glacial acetic acid and is incubated at 4° C. for 30 min. The precipitates are collected by centrifugation (Sorvall SS34, 12 000 rpm, 10 min, 4° C.) and suspended in 2.5 ml of 20 mM Tris/HCl, pH 7.0, 1 mM EDTA, 65 mM NaCl, 13% sucrose, 1 mM DTT, 10 μg/ml leupeptin/pepstatin/antipain. The suspension is dialyzed against 25 mM Tris/HCl, pH 7.4, 50% glycerol, 1 mM DTT, 10 μg/ml leupeptin, pepstatin, antipain at 4° C. overnight and then loaded onto a hydroxiapatite column (0.1 g per 1 ml of suspension, equilibrated with 10 mM potassium phosphate, pH 7.0, 30% glycerol, 1 mM DTT). The column is washed with four volumes of equilibration buffer at a flow rate of 20 to 30 ml/h. The HSL is eluted with one volume of equilibration buffer containing 0.5 M potassium phosphate and then dialyzed (see above) and concentrated 5- to 10-fold by ultrafiltration (Amicon Diaflo PM 10 Filter) at 4° C. The partially purified HSL can be stored at −70° C. for 4 to 6 weeks.
To prepare the substrate, 25-50 μCi of [3H]trioleoylglycerol (in toluene), 6.8 μmol of unlabeled trioleoylglycerol and 0.6 mg of phospholipids (phosphatidylcholine/phosphatidylinositol 3:1 w/v) are mixed, dried with N2 and then taken up in 2 ml of 0.1 M KPi (pH 7.0) by ultrasound treatment (Branson 250, microtip, setting 1-2, 2×1 min with an interval of 1 min). After addition of 1 ml of KPi and renewed ultrasound treatment (4×30 sec on ice with intervals of 30 sec), 1 ml of 20% BSA (in KPi) is added (final concentration of trioleoylglycerol 1.7 mM). For the reaction, 100 μl of substrate solution are pipetted into 100 μl of HSL solution (HSL prepared as above, diluted in 20 mM KPi, pH 7.0, 1 mM EDTA, 1 mM DTT, 0.02% BSA, 20 μg/ml pepstatin, 10 μg/ml leupeptin) and incubated at 37° C. for 30 min. Addition of 3.25 ml of methanol/chloroform/heptane (10:9:7) and of 1.05 ml of 0.1 M K2CO3, 0.1 M boric acid (pH 10.5) is followed by thorough mixing and finally centrifugation (800×g, 20 min). After phase separation, one equivalent of the upper phase (1 ml) is removed and the radioactivity is determined by liquid scintillation measurement.
Substances are normally tested in four independent mixtures. The inhibition of the HSL enzymatic activity by a test substance is determined by comparing with an uninhibited control reaction. The IC50 is calculated from an inhibition plot with at least 10 concentrations of the test substance. The GRAPHIT, Elsevier-BIOSOFT software package is used to analyze the data.

Molecule	IC50 [1] [µM]	IC50 (endothelial lipase (EL)) [µM]
Cc1ccccc1CNC(=O)n1c(=O)c2ccccc2n1C(=O)NCc1ccccc1C [Example 13, 3-Oxo-3H-indazole-1,2-dicarboxylic acid bis(2-methylbenzylamide)]		0.84
O=C(Oc1nn(C(=O)N2CCc3sccc3C2)c2cc(F)ccc12)N1CCc2sccc2C1 [Example 2, 1-(6,7-Dihydro-4H-thieno[3,2-c]pyridine-5-carbonyl)-6-fluoro-1H-indazol-3-yl 6,7-dihydro-4H-thieno[3,2-c]pyridine-5-carboxylate]	1.11	
6-Chloro-3-oxo-3H-indazole-1,2-dicarboxylic acid bishexylamide [Example 10a]		0.05
O=C(NCc1ccccc1)Oc1nn(C(=O)NCc2ccccc2)c2cc(Cl)ccc12 [Example 11b, 1-benzylcarbamoyl-6-chloro-1H-indazol-3-yl benzyl carbamate]		1.47
6-Chloro-3-oxo-3H-indazole-1,2-dicarboxylic acid bisbenzylamide [Example 11a]		0.26
CCCCCCNC(=O)Oc1nn(C(=O)NCCCCCC)c2cc(Cl)ccc12 [Example 10b, 6-chloro-1-hexylcarbamoyl-1H-indazol-3-yl hexylcarbamate]		0.06
Cc1ccccc1CNC(=O)n1c(=O)c2ccccc2n1C(=O)N1CCC(C)CC1 [Example 12, 1-(4-Methylpiperidine-1-carbonyl)-3-oxo-1,3-dihydroindazole-2-carboxylic acid 2-methylbenzylamide]		0.22
Cc1cc(O)nc2c1c(OC(=O)N1CCC(C(F)(F)F)CC1)nn2C(=O)N1CCN(C)CC1 [Example 15, 6-Hydroxy-4-methyl-1-(4-methylpiperazine-1-carbonyl)-1H-pyrazolo[3,4-b]pyridin-3-yl 4-trifluoromethylpiperidine-1-carboxylate]	1.5	

Further lines, with some results ahead:

IC50 [1] [µM]	Molecule	IC50 (endothelial lipase (EL)) [µM]
1	CC1CCN(C(=O)Oc2nn(C(=O)N3CCC(C(F)(F)F)CC3)c3cc(N)ccc23)CC1 [Example 14, 6-Amino-1-(4-trifluoromethylpiperidine-1-carbonyl)-1H-indazol-3-yl 4-methyl-piperidine-1-carboxylate]	
1.15	CC1CCN(C(=O)Oc2nn(C(=O)N3CCC(C)CC3)c3cc(F)ccc23)CC1 [Example 9b, 6-fluoro-1-(4-methylpiperidine-1-carbonyl)-1H-indazol-3-yl 4-methylpiperidine-1-carboxylate]	
0.32	O=C(Oc1nn(C(=O)N2CCN(c3ccccc3)CC2)c2cc(F)ccc12)N1CCN(c2ccccc2)CC1 [Example 1a, 6-Fluoro-1-(4-phenylpiperazine-1-carbonyl)-1H-indazol-3-yl 4-phenylpiperazine-1-carboxylate]	
0.62	O=C(N1CCN(c2ccccc2)CC1)n1c(=O)c2ccc(F)cc2n1C(=O)N1CCN(c2ccccc2)CC1 [Example 1b, 6-fluoro-1,2-bis(4-phenylpiperazine-1-carbonyl)-1,2-dihydroindazol-3-one]	
0.58	Cc1cc(O)nc2c1c(OC(=O)N1CCC(C)CC1)nn2C(=O)N1CCC(C(F)(F)F)CC1 [Example 16, 6-Hydroxy-4-methyl-1-(4-trifluoromethylpiperidine-1-carbonyl)-1H-pyrazolo-[3,4-b]pyridin-3-yl 4-methylpiperidine-1-carboxylate]	
